Tests used:
[1] = molecular target: T1, complement factor B in human serum (Homo sapiens, UniProt P00751); test: Complement hemolytic activity assay (rabbit erythrocytes, normal human serum); type: cell-based; details: versus control compound
T1 construct: from tissue; host or cells: normal human serum (NHS)
Procedure: Prior to the experiment, the optimal concentration of normal human serum (NHS) required to achieve 100% lysis of rabbit erythrocytes (REs) was obtained by titration testing. […] A GVB0 buffer containing 10 mM Mg-EGTA and containing NHS and RE but no test compound was used as a positive control group (100% lysis). A GVB0 buffer containing 10 mM Mg-EGTA and containing inactivated NHS (heated at 56° C. for 30 min or at 65° C. for 5 min) and RE but no test compound was used as a negative control group (0% lysis). […] Absorbance at 415 nm (A415) was measured using a microplate reader (Molecular Devices, SpectraMax i3X). IC50 values were calculated from percent hemolysis as a function of test compound concentration by non-linear regression.

[2] = test system: cynomolgus monkey serum AP activity; test: PD of single intragastric administration to cynomolgus monkeys (serum complement AP activity, wieslab assay); type: in vivo; details: intragastric 3 mpk and 30 mpk
Procedure: Cynomolgus monkeys were used. Each group consisted of 3 cynomolgus monkeys, and they were given the control compound at 3 mpk, the control compound at 30 mpk, the compound of formula I at 3 mpk, and the compound of formula I at 30 mpk by intragastric administration. Blood was collected at different time points and used for drug concentration analysis and complement activity detection. The compound concentration in plasma was determined by LC-MS/MS. The complement activity in serum was determined using a wieslab assay (Svar Life Science AB, COMPL AP330 RUO) kit, Normal Human Serum (Complement Technology, NHS).

[3] = test system: Streptococcus-induced rheumatoid arthritis; test: Streptococcus-induced rheumatoid arthritis (RA) model in rats; type: in vivo; details: female Lewis rats, 15 mpk intragastric daily for 25 days
Procedure: In the experiment, 6- to 9-week-old female Lewis rats (Beijing Vital River) were used. Each group consisted of 6 rats, and they were given the cell wall peptidoglycan complexes of Streptococcus and several other species of bacteria by intraperitoneal administration (2-3 mg per rat) on D1, and were given the control compound (15 mpk) and the compound of formula I (15 mpk) by intragastric administration daily for 25 consecutive days. The arthritis in rats was scored in different phases. The scoring criteria are as follows: […] The scoring criteria are as follows: 0 points, no redness and swelling; 1 point, 1-2 red and swollen interphalangeal joints; 2 points, 3-4 red and swollen interphalangeal joints; 3 points, more than 4 red and swollen interphalangeal joints; 4 points, severe redness and swelling in toes or fingers to ankle joints or wrist joints.

[4] = Liver microsomal stability experiment (rat); type: in vitro ADME; details: rat liver microsomes
Procedure: (§1) A 0.1 M solution of dipotassium phosphate in distilled water (containing 1 mM ethylenediaminetetraacetic acid) was taken. Then the pH was adjusted to 7.4 with a 0.1 M solution of potassium dihydrogen phosphate in distilled water (containing 1 mM ethylenediaminetetraacetic acid).
(§2) • Rat: SD Rat Liver Microsomes, Cat. No.: LM-DS-02M, RILD Research Institute for Liver Diseases (Shanghai) Co. Ltd. • Monkey: Cynomolgus Monkey Liver Microsomes, Cat. No.: LM-SXH-02M, RILD Research Institute for Liver Diseases (Shanghai) Co. Ltd. • Human: Pooled Human Liver Microsomes (Mongolian), Cat. No.: LM-R-02M, RILD Research Institute for Liver Diseases (Shanghai) Co. Ltd.
(§3) A 10 mM solution of each of the control compound and test compounds was prepared in DMSO. Then 10 μL of the solution was added to 190 μL of acetonitrile to form a 0.5 mM stock solution. 1.5 μL of the 0.5 mM stock solution was measured out, and […] of 20 mg/mL liver microsomes and 479.75 μL of the buffer were added. (The actual preparation amount can be adjusted according to use).
(§4) 10 mg/mL of reduced coenzyme II (NADPH) was prepared in the buffer. A 96-well plate was placed on ice. Wells corresponding to different time points (0, 10, 30, 60 and 90 min, Non-NADPH) were set for each compound. […] The mixture was analyzed on an AB SCIEX ExionLC-Triple Quad 5500 high-performance liquid chromatograph-mass spectrometer. […]

[5] = molecular target: Complement factor B (Homo sapiens, UniProt P00751); test: Optical surface plasmon resonance (SPR) binding capacity assay
Procedure: An SPR experiment was carried out at 25° C. In the experiment, a PBS buffer supplemented with 0.05% (v/v) P20 and 5% DMSO was used as a running buffer, and the analytical instrument Biacore 8K of GE Healthcare was used. A CM7 chip (GE Healthcare) was activated with 400 mM EDC and 100 mM NHS at a flow rate of 30 μL/min for 420 s. […] Then the assay chip was treated with 1 M ethanolamine hydrochloride at a flow rate of 10 μL/min for 300 s for chip blocking. The concentration of the test compound was 500 μM, the binding time was 120 s, and the dissociation time was 300 s. Data analysis was performed using a 1:1 binding model (Biacore Insight Evaluation Software, Version 2.0.15.12933).

[6] = Liver microsomal stability experiment (human); type: in vitro ADME
Procedure: as §1, §2, §3, §4

Sequence of Complement factor B (P00751 26-764): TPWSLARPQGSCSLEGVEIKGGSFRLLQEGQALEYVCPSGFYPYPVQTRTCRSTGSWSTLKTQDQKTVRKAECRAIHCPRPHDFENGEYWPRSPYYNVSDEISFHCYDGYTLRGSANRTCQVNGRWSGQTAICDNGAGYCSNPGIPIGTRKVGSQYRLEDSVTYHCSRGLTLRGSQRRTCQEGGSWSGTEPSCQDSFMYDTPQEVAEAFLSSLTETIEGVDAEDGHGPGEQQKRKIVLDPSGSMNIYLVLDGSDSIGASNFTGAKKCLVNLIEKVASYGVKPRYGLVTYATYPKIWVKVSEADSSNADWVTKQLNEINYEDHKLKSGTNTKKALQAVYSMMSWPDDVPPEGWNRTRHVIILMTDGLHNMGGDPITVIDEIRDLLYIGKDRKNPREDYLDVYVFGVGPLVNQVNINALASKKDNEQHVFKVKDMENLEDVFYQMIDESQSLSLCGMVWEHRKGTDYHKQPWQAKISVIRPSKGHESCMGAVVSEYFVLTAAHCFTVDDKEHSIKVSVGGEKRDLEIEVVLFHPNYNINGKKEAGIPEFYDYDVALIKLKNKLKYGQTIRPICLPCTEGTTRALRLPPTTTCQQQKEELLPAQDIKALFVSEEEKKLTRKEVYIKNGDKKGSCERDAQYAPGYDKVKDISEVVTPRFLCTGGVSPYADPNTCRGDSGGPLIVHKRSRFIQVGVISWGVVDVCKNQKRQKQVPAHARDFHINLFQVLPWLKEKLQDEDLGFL
T1 sequence (P00751 26-764): as above

## COc1cc(C)c2[nH]ccc2c1CN1CC[C@H](OCC2CC2)C[C@H]1c1ccc(C(=O)O)cc1 [Compound of formula I]
[1]
  Inhibitory activity against complement factor B in human serum (in words): significantly better inhibitory activity against complement factor B in human serum than that of the control compound
[2]
  Inhibition of cynomolgus monkey serum AP activity (in words, FIG. 22): can effectively inhibit the cynomolgus monkey serum AP activity
[3]
  Arthritis score (in words, FIG. 23): can improve the arthritis score
  Effect on arthritis score versus control compound (in words): significantly better effect than that of the control compound
[4]
  MMS (rat) Remaining (T = 90 min): 89.14%
[5]; test compound 500 μM, 25° C., 1:1 binding model
  Rmax (RU): 274.2 RU
[5]; versus control compound
  Binding capacity to the target protein (in words): significantly superior to that of the control compound
[6]; human liver microsomes, 90 min
  MMS (human) Remaining (T = 90 min): 91.04%
[6]; rat, monkey and human liver microsomes
  Liver microsomal stability (in words): significant liver microsomal stability

Reference: patent US20260151379A1, “SALT TYPE AND CRYSTAL FORM OF COMPLEMENT FACTOR B INHIBITOR, AND PREPARATION METHOD THEREFOR AND APPLICATION THEREOF” (SHANGHAI MEIYUE BIOTECH DEVELOPMENT CO., LTD., priority 2022, published 2026)
